Experimental data as given in BindingDB's records for doi:10.1021/jm00048a015 (Pfizer, 1994).

Molecular target: Gastrin/cholecystokinin type B receptor (Cavia porcellus)
Test: In vitro affinity to the cholecystokinin type B receptor in guinea pig cortex assayed using [125I]BH-CCK-8 as radioligand

Row | Structure (SMILES) | IC50 [nM]
1 | CCC(C)(C)NC(=O)CN1C(=O)[C@H](NC(=O)Nc2cccc(Cl)c2)C[C@H](c2ccccc2)c2ccccc21 [2-{(3R,5R)-3-[3-(3-Chloro-phenyl)-ureido]-2-oxo-5-phenyl-2,3,4,5-tetrahydro-benzo[b]azepin-1-yl}-N-(1,1-dimethyl-propyl)-acetamide] | 7.6
2 | Cc1ccccc1NC(=O)N[C@@H]1C[C@H](c2ccccc2)c2ccccc2N(CC(=O)NC(C)(C)C)C1=O [N-tert-Butyl-2-[(3R,5R)-2-oxo-5-phenyl-3-(3-o-tolyl-ureido)-2,3,4,5-tetrahydro-benzo[b]azepin-1-yl]-acetamide] | 55
3 | Cc1ccc(NC(=O)N[C@@H]2C[C@H](c3ccccc3)c3ccccc3N(CC(=O)NC(C)(C)C)C2=O)cc1 [N-tert-Butyl-2-[(3R,5R)-2-oxo-5-phenyl-3-(3-p-tolyl-ureido)-2,3,4,5-tetrahydro-benzo[b]azepin-1-yl]-acetamide] | 35
4 | CN(C(=O)CN1C(=O)[C@H](NC(=O)Nc2cccc(Cl)c2)C[C@H](c2ccccc2)c2ccccc21)C(C)(C)C [N-tert-Butyl-2-{(3R,5R)-3-[3-(3-chloro-phenyl)-ureido]-2-oxo-5-phenyl-2,3,4,5-tetrahydro-benzo[b]azepin-1-yl}-N-methyl-acetamide] | 1.5
5 | Cc1ccc2c(c1)N(CC(=O)NC(C)(C)C)C(=O)[C@H](NC(=O)Nc1cccc(Cl)c1)C[C@@H]2C1CCCCC1 [N-tert-Butyl-2-{(3R,5R)-3-[3-(3-chloro-phenyl)-ureido]-5-cyclohexyl-8-methyl-2-oxo-2,3,4,5-tetrahydro-benzo[b]azepin-1-yl}-acetamide] | 0.6
6 | COc1cccc(NC(=O)N[C@@H]2C[C@H](c3ccccc3)c3ccccc3N(CC(=O)NC(C)(C)C)C2=O)c1 [N-tert-Butyl-2-{(3R,5R)-3-[3-(3-methoxy-phenyl)-ureido]-2-oxo-5-phenyl-2,3,4,5-tetrahydro-benzo[b]azepin-1-yl}-acetamide] | 30.4
7 | Cc1cccc(NC(=O)N[C@@H]2C[C@H](c3ccccc3)c3ccccc3N(CC(=O)OC(C)(C)C)C2=O)c1 [[(3R,5R)-2-Oxo-5-phenyl-3-(3-m-tolyl-ureido)-2,3,4,5-tetrahydro-benzo[b]azepin-1-yl]-acetic acid tert-butyl ester] | 2.5

Continued, values first:

Row | IC50 [nM] | Structure (SMILES)
8 | 1.4 | Cc1ccc2c(c1)N(CC(=O)NC(C)(C)C)C(=O)[C@H](NC(=O)Nc1cccc(Cl)c1)C[C@@H]2Cc1ccccc1 [2-{(3R,5S)-5-Benzyl-3-[3-(3-chloro-phenyl)-ureido]-8-methyl-2-oxo-2,3,4,5-tetrahydro-benzo[b]azepin-1-yl}-N-tert-butyl-acetamide]
9 | 10.1 | Cc1cccc(NC(=O)N[C@@H]2C[C@H](c3ccccc3)c3ccccc3N(CC(=O)NC(C)(C)C)C2=O)c1 [N-tert-Butyl-2-[(3R,5R)-2-oxo-5-phenyl-3-(3-m-tolyl-ureido)-2,3,4,5-tetrahydro-benzo[b]azepin-1-yl]-acetamide]
10 | 3.4 | Cc1ccc2c(c1)N(CC(=O)NC(C)(C)C)C(=O)[C@H](NC(=O)Nc1cccc(Cl)c1)C[C@@H]2C(C)C [N-tert-Butyl-2-{(3R,5R)-3-[3-(3-chloro-phenyl)-ureido]-5-isopropyl-8-methyl-2-oxo-2,3,4,5-tetrahydro-benzo[b]azepin-1-yl}-acetamide]
11 | 32 | Cc1ccc2c(c1)[C@@H](c1ccccc1)C[C@@H](NC(=O)Nc1cccc(Cl)c1)C(=O)N2CC(=O)NC(C)(C)C [N-tert-Butyl-2-{(3R,5R)-3-[3-(3-chloro-phenyl)-ureido]-7-methyl-2-oxo-5-phenyl-2,3,4,5-tetrahydro-benzo[b]azepin-1-yl}-acetamide]
12 | 4 | CC(C)(C)NC(=O)CN1C(=O)[C@H](NC(=O)Nc2cccc(Cl)c2)C[C@H](c2cccc(Cl)c2)c2ccccc21 [N-tert-Butyl-2-{(3R,5R)-5-(3-chloro-phenyl)-3-[3-(3-chloro-phenyl)-ureido]-2-oxo-2,3,4,5-tetrahydro-benzo[b]azepin-1-yl}-acetamide]
13 | 24 | CC(C)(C)NC(=O)CN1C(=O)[C@H](NC(=O)Nc2cccc(Cl)c2)C[C@H](c2ccccc2)c2cc(Cl)ccc21 [N-tert-Butyl-2-{(3R,5R)-7-chloro-3-[3-(3-chloro-phenyl)-ureido]-2-oxo-5-phenyl-2,3,4,5-tetrahydro-benzo[b]azepin-1-yl}-acetamide]
14 | 2.2 | Cc1ccc2c(c1)N(CC(=O)OC(C)(C)C)C(=O)[C@H](NC(=O)Nc1cccc(Cl)c1)C[C@@H]2c1ccccc1 [{(3R,5R)-3-[3-(3-Chloro-phenyl)-ureido]-8-methyl-2-oxo-5-phenyl-2,3,4,5-tetrahydro-benzo[b]azepin-1-yl}-acetic acid tert-butyl ester]
